In patent US20250171438A1 (Agios Pharmaceuticals, Inc., priority 2022, published 2025):

Target: T1, human PAH with the R408W mutation (Homo sapiens, UniProt P00439, R408W)
T1 construct: expressed in transfected cells
T1 sequence (P00439 1-452 R408W): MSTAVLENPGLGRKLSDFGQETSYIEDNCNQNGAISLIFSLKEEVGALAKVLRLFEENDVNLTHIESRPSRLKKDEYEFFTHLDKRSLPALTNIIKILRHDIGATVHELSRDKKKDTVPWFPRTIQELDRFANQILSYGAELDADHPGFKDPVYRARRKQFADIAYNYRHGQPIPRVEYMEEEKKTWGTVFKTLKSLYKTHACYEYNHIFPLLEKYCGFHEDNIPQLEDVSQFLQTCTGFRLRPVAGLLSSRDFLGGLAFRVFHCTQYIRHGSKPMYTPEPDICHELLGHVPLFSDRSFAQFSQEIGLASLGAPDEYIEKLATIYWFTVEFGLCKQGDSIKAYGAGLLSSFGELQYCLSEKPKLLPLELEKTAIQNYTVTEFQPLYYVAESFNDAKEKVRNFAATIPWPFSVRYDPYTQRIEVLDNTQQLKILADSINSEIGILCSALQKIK
Assay: Cell Based Phenylalanine Flux Assay
Details: A375 cells expressing human R408W PAH; 24 hrs compound incubation; 13C-Tyrosine by LC-MS; average where tested multiple times; read-out: AC50

SMILES | AC50 [nM]
Cn1cc(C(F)(F)C(=O)N2CCc3[nH]cnc3[C@H]2c2nc3ccccc3s2)cn1 [Example 1555] | 1000 to 5000
Cn1cc(C(F)(F)C(=O)N2CCc3[nH]cnc3[C@@H]2c2nc3ccccc3s2)cn1 [Example 1556, (R)-1-(4-(benzo[d]thiazol-2-yl)-6,7-dihydro-1H-imidazo[4,5-c]pyridin-5(4H)-yl)-2,2-difluoro-2-(1-methyl-1H-pyrazol-4-yl)ethanone] | 1000 to 5000
O=C(c1oc(-c2ccccn2)nc1C1CC1)N1CCc2[nH]cnc2[C@@H]1c1nc2cccc(F)c2s1 [Example 1557, (R)-(4-cyclopropyl-2-(pyridin-2-yl)oxazol-5-yl)(4-(7-fluorobenzo[d]thiazol-2-yl)-6,7-dihydro-1H-imidazo[4,5-c]pyridin-5(4H)-yl)methanone] | 500 to 1000
O=C(c1oc(-c2ccccn2)nc1C1CC1)N1CCc2[nH]cnc2[C@H]1c1nc2cccc(F)c2s1 [Example 1558] | < 500
O=C(c1oc(NC2CC2)nc1C(F)(F)F)N1CCc2[nH]cnc2[C@H]1c1nc2ccccc2s1 [Example 1559] | < 500
O=C(c1oc(NC2CC2)nc1C(F)(F)F)N1CCc2[nH]cnc2[C@@H]1c1nc2ccccc2s1 [Example 1560, (R)-(4-(benzo[d]thiazol-2-yl)-6,7-dihydro-1H-imidazo[4,5-c]pyridin-5(4H)-yl)(2-(cyclopropylamino)-4-(trifluoromethyl)oxazol-5-yl)methanone] | < 500
O=C(c1oc(C2(O)CCC2)nc1C(F)(F)F)N1CCc2[nH]cnc2[C@H]1c1nc2ccccc2s1 [Example 1565] | < 500
O=C(c1oc(C2(O)CCC2)nc1C(F)(F)F)N1CCc2[nH]cnc2[C@@H]1c1nc2ccccc2s1 [Example 1566, (R)-(4-(benzo[d]thiazol-2-yl)-6,7-dihydro-1H-imidazo[4,5-c]pyridin-5(4H)-yl)(2-(1-hydroxycyclobutyl)-4-(trifluoromethyl)oxazol-5-yl)methanone] | < 500
O=C(c1oc(/C=C/C2CC2)nc1C(F)(F)F)N1CCc2[nH]cnc2[C@H]1c1nc2ccccc2s1 [Example 1567] | 500 to 1000
O=C(c1oc(/C=C/C2CC2)nc1C(F)(F)F)N1CCc2[nH]cnc2[C@@H]1c1nc2ccccc2s1 [Example 1568, (R,E)-(4-(benzo[d]thiazol-2-yl)-6,7-dihydro-1H-imidazo[4,5-c]pyridin-5(4H)-yl)(2-(2-cyclopropylvinyl)-4-(trifluoromethyl)oxazol-5-yl)methanone] | 1000 to 5000
CC(C)(O)/C=C/c1nc(C(F)(F)F)c(C(=O)N2CCc3[nH]cnc3[C@H]2c2nc3ccccc3s2)o1 [Example 1569] | < 500
CC(C)(O)/C=C/c1nc(C(F)(F)F)c(C(=O)N2CCc3[nH]cnc3[C@@H]2c2nc3ccccc3s2)o1 [Example 1570, (R,E)-(4-(benzo[d]thiazol-2-yl)-6,7-dihydro-1H-imidazo[4,5-c]pyridin-5(4H)-yl)(2-(3-hydroxy-3-methylbut-1-en-1-yl)-4-(trifluoromethyl)oxazol-5-yl)methanone] | < 500
O=C(c1oc(C2CC2)nc1C(F)F)N1CCc2[nH]cnc2[C@H]1c1nc2c(F)cccc2s1 [Example 1571, (S)-(2-cyclopropyl-4-(difluoromethyl)oxazol-5-yl)(4-(4-fluorobenzo[d]thiazol-2-yl)-6,7-dihydro-1H-imidazo[4,5-c]pyridin-5(4H)-yl)methanone] | < 500
O=C(c1oc(C2CC2)nc1C(F)F)N1CCc2[nH]cnc2[C@@H]1c1nc2c(F)cccc2s1 [Example 1572, (R)-(2-cyclopropyl-4-(difluoromethyl)oxazol-5-yl)(4-(4-fluorobenzo[d]thiazol-2-yl)-6,7-dihydro-1H-imidazo[4,5-c]pyridin-5(4H)-yl)methanone] | 500 to 1000
CN1CCN(c2nc(C(F)(F)F)c(C(=O)N3CCc4[nH]cnc4[C@H]3c3nc4ccccc4s3)o2)CC1 [Example 1573] | < 500
CN1CCN(c2nc(C(F)(F)F)c(C(=O)N3CCc4[nH]cnc4[C@@H]3c3nc4ccccc4s3)o2)CC1 [Example 1574, (R)-(4-(benzo[d]thiazol-2-yl)-6,7-dihydro-1H-imidazo[4,5-c]pyridin-5(4H)-yl)(2-(4-methylpiperazin-1-yl)-4-(trifluoromethyl)oxazol-5-yl)methanone] | < 500
O=C(c1oc(CCN2CC(F)C2)nc1C(F)(F)F)N1CCc2[nH]cnc2[C@H]1c1nc2ccccc2s1 [Example 1575] | < 500
O=C(c1oc(CCN2CC(F)C2)nc1C(F)(F)F)N1CCc2[nH]cnc2[C@@H]1c1nc2ccccc2s1 [Example 1576, (R)-(4-(benzo[d]thiazol-2-yl)-6,7-dihydro-1H-imidazo[4,5-c]pyridin-5(4H)-yl)(2-(2-(3-fluoroazetidin-1-yl)ethyl)-4-(trifluoromethyl)oxazol-5-yl)methanone] | < 500

SMILES | AC50 [nM]
Cc1ncoc1C(=O)N1CC2(CC2)c2[nH]cnc2[C@@H]1c1nc2ccccc2s1 [Example 1578, (R)-(4′-(benzo[d]thiazol-2-yl)spiro[cyclopropane-1,7′-imidazo[4,5-c]pyridin]-5′(1′H,4′H,6′H)-yl)(4-methyloxazol-5-yl)methanone] | > 5000
O=C(c1oc(CCC2CC2)nc1C(F)(F)F)N1CCc2[nH]cnc2[C@H]1c1nc2ccccc2s1 [Example 1579] | < 500
O=C(c1oc(CCC2CC2)nc1C(F)(F)F)N1CCc2[nH]cnc2[C@@H]1c1nc2ccccc2s1 [Example 1580, (R)-(4-(benzo[d]thiazol-2-yl)-6,7-dihydro-1H-imidazo[4,5-c]pyridin-5(4H)-yl)(2-(2-cyclopropylethyl)-4-(trifluoromethyl)oxazol-5-yl)methanone] | < 500
CN(C)CCc1nc(C(F)(F)F)c(C(=O)N2CCc3[nH]cnc3[C@H]2c2nc3ccccc3s2)o1 [Example 1581] | < 500
CN(C)CCc1nc(C(F)(F)F)c(C(=O)N2CCc3[nH]cnc3[C@@H]2c2nc3ccccc3s2)o1 [Example 1582, (R)-(4-(benzo[d]thiazol-2-yl)-6,7-dihydro-1H-imidazo[4,5-c]pyridin-5(4H)-yl)(2-(2-(dimethylamino)ethyl)-4-(trifluoromethyl)oxazol-5-yl)methanone] | < 500
N#Cc1ncoc1C(=O)N1CCc2[nH]cnc2[C@H]1c1nc2ccccc2s1 [Example 1583, (S)-5-(4-(benzo[d]thiazol-2-yl)-4,5,6,7-tetrahydro-1H-imidazo[4,5-c]pyridine-5-carbonyl)oxazole-4-carbonitrile] | < 500
N#Cc1ncoc1C(=O)N1CCc2[nH]cnc2[C@@H]1c1nc2ccccc2s1 [Example 1584, (R)-5-(4-(benzo[d]thiazol-2-yl)-4,5,6,7-tetrahydro-1H-imidazo[4,5-c]pyridine-5-carbonyl)oxazole-4-carbonitrile] | > 5000
O=C(c1nnc(N2CCOCC2)o1)N1CCc2[nH]cnc2[C@H]1c1nc2ccccc2s1 [Example 1585] | 500 to 1000
O=C(c1nnc(N2CCOCC2)o1)N1CCc2[nH]cnc2[C@@H]1c1nc2ccccc2s1 [Example 1586, (R)-(4-(benzo[d]thiazol-2-yl)-6,7-dihydro-1H-imidazo[4,5-c]pyridin-5(4H)-yl)(5-morpholino-1,3,4-oxadiazol-2-yl)methanone] | 1000 to 5000
C[C@@H]1CN(C(=O)c2nnc(-c3ccccn3)o2)[C@H](c2nc3ccccc3s2)c2nc[nH]c21 [Example 1588, ((4S,7R)-4-(benzo[d]thiazol-2-yl)-7-methyl-6,7-dihydro-1H-imidazo[4,5-c]pyridin-5(4H)-yl)(5-(pyridin-2-yl)-1,3,4-oxadiazol-2-yl)methanone] | 500 to 1000
C[C@H]1CN(C(=O)c2nnc(-c3ccccn3)o2)[C@H](c2nc3ccccc3s2)c2nc[nH]c21 [Example 1589, ((4S,7S)-4-(benzo[d]thiazol-2-yl)-7-methyl-6,7-dihydro-1H-imidazo[4,5-c]pyridin-5(4H)-yl)(5-(pyridin-2-yl)-1,3,4-oxadiazol-2-yl)methanone] | 500 to 1000
C[C@H]1CN(C(=O)c2nnc(-c3ccccn3)o2)[C@@H](c2nc3ccccc3s2)c2nc[nH]c21 [Example 1590, ((4R,7S)-4-(benzo[d]thiazol-2-yl)-7-methyl-6,7-dihydro-1H-imidazo[4,5-c]pyridin-5(4H)-yl)(5-(pyridin-2-yl)-1,3,4-oxadiazol-2-yl)methanone] | 1000 to 5000
O=C(c1nnc(N2CCC(F)CC2)o1)N1CCc2[nH]cnc2[C@H]1c1nc2ccccc2s1 [Example 1591] | < 500
O=C(c1nnc(N2CCC(F)CC2)o1)N1CCc2[nH]cnc2[C@@H]1c1nc2ccccc2s1 [Example 1592, (R)-(4-(benzo[d]thiazol-2-yl)-6,7-dihydro-1H-imidazo[4,5-c]pyridin-5(4H)-yl)(5-(4-fluoropiperidin-1-yl)-1,3,4-oxadiazol-2-yl)methanone] | 1000 to 5000
O=C(c1nnc(NC2CC2)o1)N1CCc2[nH]cnc2[C@H]1c1nc2ccccc2s1 [Example 1593] | 500 to 1000
O=C(c1nnc(NC2CC2)o1)N1CCc2[nH]cnc2[C@@H]1c1nc2ccccc2s1 [Example 1594, (R)-(4-(benzo[d]thiazol-2-yl)-6,7-dihydro-1H-imidazo[4,5-c]pyridin-5(4H)-yl)(5-(cyclopropylamino)-1,3,4-oxadiazol-2-yl)methanone] | 1000 to 5000
O=C(c1oc(NC2CC2)nc1C(F)(F)F)N1CCc2[nH]cnc2[C@H]1c1nc2c(F)cccc2s1 [Example 1595] | < 500
